Experimental data taken from ChEMBL document CHEMBL3045618, “Effect of seven new orchard pesticides on Galendromus occidentalis in laboratory studies” (2009).

What was measured:
Galendromus occidentalis [1] = assay: Toxicity against Metaseiulus occidentalis in hop fields assessed as mortality; format: functional
Galendromus occidentalis [2] = assay: Ovicidal activity against Metaseiulus occidentalis eggs in bean leaf disk infested with two-spotted spider mites assessed as corrected cumulative mortality at 240 g/L SC formulation treated using worst-case laboratory exposure procedure measured after 144 hr (reference value: 0.7%); format: functional
Galendromus occidentalis [3] = assay: Toxicity against Metaseiulus occidentalis adults in bean leaf disk infested with two-spotted spider mites assessed as mortality treated using worst-case laboratory exposure procedure measured after 72 hr; format: functional
Galendromus occidentalis [4] = assay: Toxicity against Metaseiulus occidentalis adults in bean leaf disk infested with two-spotted spider mites assessed as corrected mortality at 0.1600/32 g AI/L treated using worst-case laboratory exposure procedure measured after 72 hr; format: functional
Galendromus occidentalis [5] = assay: Toxicity against Metaseiulus occidentalis adults in bean leaf disk infested with two-spotted spider mites assessed as repellency at 0.1600 g AI/L treated using worst-case laboratory exposure procedure measured after 24 hr (reference value: 3.6%); format: functional
Galendromus occidentalis [6] = assay: Toxicity against Metaseiulus occidentalis adults in bean leaf disk infested with two-spotted spider mites assessed as average number of eggs laid (fecundity) at 0.1600 g AI/L treated using worst-case laboratory exposure procedure measured after 24 hr (reference value: 2.11/day); format: functional
Amblyseius andersoni = assay: Toxicity against Amblyseius andersoni in hop fields assessed as mortality; format: functional
Galendromus occidentalis [7] = assay: Toxicity against Metaseiulus occidentalis adults in bean leaf disk infested with two-spotted spider mites assessed as average number of eggs laid (fecundity) at 0.1600 g AI/L treated using worst-case laboratory exposure procedure measured after 48 hr (reference value: 2.30/day); format: functional
Galendromus occidentalis [8] = assay: Toxicity against Metaseiulus occidentalis adults in bean leaf disk infested with two-spotted spider mites assessed as corrected mortality at 0.1600/16 g AI/L treated using worst-case laboratory exposure procedure measured after 72 hr; format: functional
Galendromus occidentalis [9] = assay: Toxicity against Metaseiulus occidentalis adults in bean leaf disk infested with two-spotted spider mites assessed as repellency at 0.1600 g AI/L treated using worst-case laboratory exposure procedure measured after 72 hr (reference value: 16.1%); format: functional
Galendromus occidentalis [10] = assay: Toxicity against Metaseiulus occidentalis adults in bean leaf disk infested with two-spotted spider mites assessed as repellency at 0.1600 g AI/L treated using worst-case laboratory exposure procedure measured after 48 hr (reference value: 13.6%); format: functional
Galendromus occidentalis [11] = assay: Toxicity against Metaseiulus occidentalis adults in bean leaf disk infested with two-spotted spider mites assessed as corrected mortality at 0.1600/8 g AI/L treated using worst-case laboratory exposure procedure measured after 72 hr; format: functional
Galendromus occidentalis [12] = assay: Toxicity against Metaseiulus occidentalis adults in bean leaf disk infested with two-spotted spider mites assessed as corrected mortality at 0.1600/2 g AI/L treated using worst-case laboratory exposure procedure measured after 72 hr; format: functional
Galendromus occidentalis [13] = assay: Toxicity against Metaseiulus occidentalis adults in bean leaf disk infested with two-spotted spider mites assessed as average number of eggs laid (fecundity) at 0.1600 g AI/L treated using worst-case laboratory exposure procedure measured after 72 hr (reference value: 2.23/day); format: functional
Galendromus occidentalis [14] = assay: Toxicity against Metaseiulus occidentalis adults in bean leaf disk infested with two-spotted spider mites assessed as corrected mortality at 0.1600 g AI/L treated using worst-case laboratory exposure procedure measured after 72 hr; format: functional
Neoseiulus fallacis = assay: Toxicity against Neoseiulus fallacis in hop fields assessed as mortality; format: functional, Garman
Galendromus occidentalis [15] = assay: Toxicity against Metaseiulus occidentalis adults in bean leaf disk infested with two-spotted spider mites assessed as repellency at 0.3767 g AI/L treated using worst-case laboratory exposure procedure measured after 48 hr (reference value: 13.6%); format: functional
Galendromus occidentalis [16] = assay: Toxicity against Metaseiulus occidentalis adults in bean leaf disk infested with two-spotted spider mites assessed as average number of eggs laid (fecundity) at 0.3767 g AI/L treated using worst-case laboratory exposure procedure measured after 72 hr (reference value: 2.23/day); format: functional
Galendromus occidentalis [17] = assay: Toxicity against Metaseiulus occidentalis adults in bean leaf disk infested with two-spotted spider mites assessed as repellency at 0.3767 g AI/L treated using worst-case laboratory exposure procedure measured after 24 hr (reference value: 3.6%); format: functional
Galendromus occidentalis [18] = assay: Toxicity against Metaseiulus occidentalis adults in bean leaf disk infested with two-spotted spider mites assessed as corrected mortality at 0.3767 g AI/L treated using worst-case laboratory exposure procedure measured after 72 hr; format: functional
Galendromus occidentalis [19] = assay: Toxicity against Metaseiulus occidentalis adults in bean leaf disk infested with two-spotted spider mites assessed as repellency at 0.3767 g AI/L treated using worst-case laboratory exposure procedure measured after 72 hr (reference value: 16.1%); format: functional
Galendromus occidentalis [20] = assay: Toxicity against Metaseiulus occidentalis adults in bean leaf disk infested with two-spotted spider mites assessed as average number of eggs laid (fecundity) at 0.3767 g AI/L treated using worst-case laboratory exposure procedure measured after 48 hr (reference value: 2.30/day); format: functional
Galendromus occidentalis [21] = assay: Toxicity against Metaseiulus occidentalis adults in bean leaf disk infested with two-spotted spider mites assessed as average number of eggs laid (fecundity) at 0.3767 g AI/L treated using worst-case laboratory exposure procedure measured after 24 hr (reference value: 2.11/day); format: functional
Galendromus occidentalis [22] = assay: Toxicity against Metaseiulus occidentalis adults in bean leaf disk infested with two-spotted spider mites assessed as average number of eggs laid (fecundity) at 0.3024 g AI/L treated using worst-case laboratory exposure procedure measured after 24 hr (reference value: 2.11/day); format: functional
Galendromus occidentalis [23] = assay: Toxicity against Metaseiulus occidentalis adults in bean leaf disk infested with two-spotted spider mites assessed as corrected mortality at 0.3024 g AI/L treated using worst-case laboratory exposure procedure measured after 72 hr; format: functional
Galendromus occidentalis [24] = assay: Toxicity against Metaseiulus occidentalis adults in bean leaf disk infested with two-spotted spider mites assessed as repellency at 0.3024 g AI/L treated using worst-case laboratory exposure procedure measured after 48 hr (reference value: 13.6%); format: functional
Galendromus occidentalis [25] = assay: Toxicity against Metaseiulus occidentalis adults in bean leaf disk infested with two-spotted spider mites assessed as average number of eggs laid (fecundity) at 0.3024 g AI/L treated using worst-case laboratory exposure procedure measured after 72 hr (reference value: 2.23/day); format: functional
Galendromus occidentalis [26] = assay: Toxicity against Metaseiulus occidentalis adults in bean leaf disk infested with two-spotted spider mites assessed as repellency at 0.3024 g AI/L treated using worst-case laboratory exposure procedure measured after 24 hr (reference value: 3.6%); format: functional
Galendromus occidentalis [27] = assay: Toxicity against Metaseiulus occidentalis adults in bean leaf disk infested with two-spotted spider mites assessed as average number of eggs laid (fecundity) at 0.3024 g AI/L treated using worst-case laboratory exposure procedure measured after 48 hr (reference value: 2.30/day); format: functional
Galendromus occidentalis [28] = assay: Toxicity against Metaseiulus occidentalis adults in bean leaf disk infested with two-spotted spider mites assessed as repellency at 0.3024 g AI/L treated using worst-case laboratory exposure procedure measured after 72 hr (reference value: 16.1%); format: functional

## O=[N+]([O-])/N=C1\NCCN1Cc1ccc(Cl)nc1 [IMIDACLOPRID]
Galendromus occidentalis [1]
  mortality: 100%
Galendromus occidentalis [2]
  mortality at 240000 µg/mL (stock): 2.7%
Galendromus occidentalis [3]
  LC50: 0.0156 gAi/L
Galendromus occidentalis [4]
  mortality: 16.8%
Galendromus occidentalis [5]
  Repellency: 16%
Galendromus occidentalis [6]
  Activity: 2.05 day⁻¹
Amblyseius andersoni
  mortality: 35.6%
Galendromus occidentalis [7]
  Activity: 1.54 day⁻¹
Galendromus occidentalis [8]
  mortality: 34.4%
Galendromus occidentalis [9]
  Repellency: 53.8%
Galendromus occidentalis [10]
  Repellency: 51.9%
Galendromus occidentalis [11]
  mortality: 59.4%
Galendromus occidentalis [12]
  mortality: 84.2%
Galendromus occidentalis [13]
  Activity: 1.3 day⁻¹
Galendromus occidentalis [14]
  mortality: 97.4%
Neoseiulus fallacis
  mortality: 100%

## COc1cccc(C(=O)NN(C(=O)c2cc(C)cc(C)c2)C(C)(C)C)c1C [METHOXYFENOZIDE]
Galendromus occidentalis [15]
  Repellency: 5.8%
Galendromus occidentalis [16]
  Activity: 2.38 day⁻¹
Galendromus occidentalis [2]
  mortality at 240000 µg/mL (stock): 3.1%
Galendromus occidentalis [17]
  Repellency: 3.8%
Galendromus occidentalis [18]
  mortality: 1.3%
Galendromus occidentalis [19]
  Repellency: 9%
Galendromus occidentalis [20]
  Activity: 2.15 day⁻¹
Galendromus occidentalis [21]
  Activity: 1.93 day⁻¹

## CCC(C)(C)C(=O)OC1=C(c2ccc(Cl)cc2Cl)C(=O)OC12CCCCC2 [SPIRODICLOFEN]
Galendromus occidentalis [22]
  Activity: 1.93 day⁻¹
Galendromus occidentalis [23]
  mortality: 2.1%
Galendromus occidentalis [24]
  Repellency: 13.5%
Galendromus occidentalis [2]
  mortality at 240000 µg/mL (stock): 2.3%
Galendromus occidentalis [25]
  Activity: 1.43 day⁻¹
Galendromus occidentalis [26]
  Repellency: 6.4%
Galendromus occidentalis [27]
  Activity: 1.83 day⁻¹
Galendromus occidentalis [28]
  Repellency: 15.4%
